Data set [1] is described as follows: Inhibition of [3H]BTX binding to cardiac voltage-gated sodium channel. On the set-up: species or system Rattus norvegicus.
Data set [2] can be described thus: Inhibition of veratridine-induced guanidine flux in cardiac voltage-gated sodium channel (veratridine block vs. Na release). Format: functional, tissue-based, Rattus norvegicus, Heart.
The species named for data set [3] is Rattus norvegicus. Description: Neuroprotective activity was determined in the rat middle cerebral artery occlusion (MCAO) model of focal stroke. Format: functional. Conditions: read-out: MED.
Data set [4] relates to Rattus norvegicus. Description: In vivo anticonvulsant activity to prevent seizures from maximum electroshock (MES) […]. Format: functional.
A short description of data set [5]: In vivo toxic dose in rotarod assay. Format: ADME, organism-based. Conditions: rat.
In data set [6] the test system is Gerbillinae. Nature of the data set: Neuroprotective activity was determined in the rat middle cerebral artery occlusion (MCAO) model of focal stroke in gerbil. Conditions: read-out: MED. Format: functional.
The species named for data set [7] is Rattus norvegicus. Description: Neuroprotective activity was determined in the rat middle cerebral artery occlusion (MCAO) model of focal stroke using rotarod assay. Format: functional. The note with it: read-out: MED.
For data set [8], the species on record is Rattus norvegicus. Nature of the data set: Minimum effective dose was determined in the rat middle cerebral artery occlusion (MCAO) model of focal stroke […]. Format: functional. Conditions: read-out: MED. (Falling from the rotarod earlier than controls is read as motor impairment.)
For data set [9], the species on record is Rattus norvegicus. Nature of the data set: Minimum effective dose (MED) was determined in the rat middle cerebral artery occlusion (MCAO) model of focal stroke […]. Format: functional. The note with it: read-out: MED.
The test system of data set [10] is Rattus norvegicus. Description: In vivo anticonvulsant activity to prevent seizures from maximum electroshock (MES) […] after (i.v.) administration. Format: functional. The note with it: iv.
The nature of data set [11]: Effective dose was determined after intraperitoneal administration in the MES model. Format: functional. The note with it: Rattus norvegicus, ip.
Data set [12] deals with GABA-A receptor; anion channel. Description: Anticonvulsant activity against gamma-aminobutyric acid receptor. Format: functional.
Data set [13] in a line: Inhibition of [3H]-BTX binding to cardiac voltage-gated sodium channel. Format: functional, Rattus norvegicus.
Data set [14] in a line: Potency against voltage-gated calcium channel [45[Ca2+]]. Format: functional.

The text below walks through data of ChEMBL document CHEMBL1134457, “Medicinal chemistry of neuronal voltage-gated sodium channel blockers” (J Med Chem, 2001).

The compound `COc1ccc(CN2CCN(C(c3ccc(F)cc3)c3ccc(F)cc3)CC2)c(OC)c1OC` [LOMERIZINE] had a 50% inhibitory concentration (IC50) in [1] of 0.026 µM.
In turn, `Cc1cccc(C)c1NC(=O)Nc1ccncc1` had an IC50 in data set [1] of 29 µM.
As to `OC(COc1ccccc1)CN1CCC(c2ccc(Oc3ccccc3)cc2)CC1` (stereo unspecified), in data set [2], half-maximal inhibition (IC50) required 0.22 µM. In data set [3], the minimal effective dose turned out to be 3 mg/kg.
Turning to `CC(NCc1ccc(OCc2cccc(F)c2)cc1)C(N)=O` (stereo unspecified), the ED50 in data set [4] was found to be 4.1 mg/kg.
As to `COc1ccccc1OCCNCC(O)COc1cccc2[nH]c3ccccc3c12` (stereo unspecified) [CARVEDILOL], the half-maximal inhibitory concentration (IC50) in [2] came out at 0.306 µM; in data set [1] it was 1.7 µM.
Consider `CCOc1ccccc1OCCN1CCC2(CC)c3cccc(O)c3CC1C2(C)C` (stereo unspecified), for which the minimal effective dose in data set [3] was found to be 2 mg/kg.
Compound `Nc1ncnnc1-c1cc(Cl)cc(Cl)c1Cl` registered a TD50 in data set [5] of 40 mg/kg. Moreover, the 50% effect level in [4] (ED50) was put at a dose of 1.7 mg/kg.
Regarding `COc1ccc(/N=C(\N)Nc2ccc3c4c(cccc24)CC3)c2ccccc12`, the minimal effective dose in data set [6] was 30 mg/kg. In [2], this compound gave an IC50 of 1.64 µM.
For the compound `Nc1nccc2c1nnn2Cc1c(F)cccc1F`, the median effective dose (ED50) in data set [4] turned out to be 6.3 mg/kg.
`NC1CCc2c(-c3ccccc3)[nH]c3cccc1c23` (stereo unspecified): the IC50 was 4.1 µM in data set [2] and 1.1 µM in data set [1].
In data set [4], `Cc1cccc(C)c1NC(=O)c1ccc(N)cc1` [AMELTOLIDE] had an ED50 of 13 mg/kg.
Regarding `Fc1ccc(C(c2ccc(F)cc2)N2CCN(C/C=C/c3ccccc3)CC2)cc1` [FLUNARIZINE], the figures for the half-maximal inhibitory concentration (IC50) in [2] and in [1] were 0.12 µM and 0.35 µM, respectively.
With `Nc1nnc(-c2cccc(Cl)c2Cl)c(N)n1` [LAMOTRIGINE], the IC50 in data set [2] was determined as 21 µM; in data set [1], 114 µM. Further, the TD50 in [5] is 84 mg/kg. In data set [4], this compound came in with a 50% effective dose (ED50) of 2.2 mg/kg. Further, the minimal effective dose in data set [3] was 20 mg/kg.
As for `COc1ccc(CCN(C)CCCC(C#N)(c2ccc(OC)c(OC)c2)C(C)C)cc1OC` (stereo unspecified), the 50% inhibitory concentration (IC50) in data set [2] and in data set [1] was 2.5 µM each time.
With `CCCN(c1ccncc1)n1ccc2ccccc21` [BESIPIRDINE], the results for the half-inhibitory concentration (IC50) in [2] and in data set [1] were 30 µM and 5.5 µM, respectively.
As for `COC(=O)c1[nH]cc(-c2ccc(Br)cc2)c1N1CCOCC1`, the TD50 in [5] was more than 500 mg/kg. The compound further displayed an ED50 in [4] of 2.5 mg/kg.
Turning to `NC(=O)C12NC(Cc3ccccc31)c1ccccc12` (stereo unspecified), in data set [4], the 50% effect level (ED50) was put at a dose of 8.9 mg/kg.
In the case of `CC1CCCC(C)N1CCCNC(=O)C(c1ccccc1)c1ccccc1` (stereo unspecified), the values for the half-maximal inhibitory concentration (IC50) in data set [2] and in data set [1] were 5 µM and 0.046 µM, respectively.
On to `COC(=O)[C@@H]1C(=O)C=C(Nc2ccc(Cl)cc2)C[C@H]1C`, for which the TD50 in [5] was determined as 255 mg/kg. Besides, the 50% effect level in data set [4] (ED50) was put at a dose of 26.2 mg/kg.
As to `CCN(CC)CC(=O)Nc1c(C)cccc1C` [LIDOCAINE], the figures for the concentration for half-maximal inhibition (IC50) in data set [2] and in data set [1] were 97 µM and 113 µM, respectively. Also, the TD50 in [5] is 41 mg/kg. For the same compound, it took a dose of 87 mg/kg to reach the 50% effect level in data set [4] (ED50).
The compound `Cc1cccc(C)c1NC(=O)/C=C1/SCC(=O)N1C` returned an ED50 in [4] of 2.8 mg/kg. Also, the IC50 in [1] came to 25 µM.
The compound `CC1(C)O[C@@H]2[C@@H](CO[C@@]3(COS(N)(=O)=O)OC(C)(C)O[C@@H]23)O1` [TOPIRAMATE] gave a 50% effective dose (ED50) in [4] of 39 mg/kg.
In data set [5], `Nc1cnc(-c2cc(Cl)cc(Cl)c2Cl)c(N)n1` [ELPETRIGINE] came in with a TD50 of 18.8 mg/kg. Moreover, the median effective dose (ED50) in data set [4] was 1.13 mg/kg.
Compound `CN(C)CCOc1ccccc1-c1nc(-c2ccccc2)no1` yielded a median effective dose (ED50) in data set [4] of 2.8 mg/kg.
`Nc1nc2ccc(OC(F)(F)F)cc2s1` [RILUZOLE]: the minimal effective dose in data set [7] was 30 mg/kg; in data set [3], 4 mg/kg. The compound further came in with a 50% inhibitory concentration (IC50) in data set [2] of 4 µM.
As for `CN1CCN(c2ncc(-c3cc(Cl)cc(Cl)c3Cl)c(N)n2)CC1` [SIPATRIGINE], the minimal effective dose in data set [8] was found to be 60 mg/kg; in data set [3], 30 mg/kg. In data set [2], this compound returned an IC50 of 5.3 µM.
For `Nc1ncc(-c2cc(Cl)cc(Cl)c2Cl)c(N)n1`, the 50% inhibitory concentration (IC50) in [2] was determined as 1.6 µM. In addition, the minimal effective dose in [3] worked out at 20 mg/kg.
Turning to `CC(Cc1ccccc1)(NC(=O)CN)c1ccccc1` (stereo unspecified) [REMACEMIDE], the minimal effective dose was 100 mg/kg in data set [9] and 10 mg/kg in data set [3].
Turning to `NC(=O)N1c2ccccc2C=Cc2ccccc21` [CARBAMAZEPINE], the half-inhibitory concentration (IC50) in data set [2] stood at 30 µM; in data set [1], 131 µM. The TD50 in [5] was determined as 27.4 mg/kg. Moreover, the median effective dose (ED50) in data set [4] came out at 3.4 mg/kg. Also, the minimal effective dose in data set [3] is 2 mg/kg.
Regarding `Cc1cccc(C)c1N1C(=O)c2ccc(N)cc2C1=O`, the IC50 in data set [1] was determined as 0.11 µM.
`NS(=O)(=O)Cc1noc2ccccc12` [ZONISAMIDE]: the minimal effective dose in data set [3] was 100 mg/kg.
`Cc1ccc(-c2nc(C)c(CN3CCN(C(c4ccc(F)cc4)c4ccc(F)cc4)CC3)[nH]2)cc1`: the 50% inhibitory concentration (IC50) in [2] is 0.3 µM; in [1], 0.119 µM.
Take `O=C1NC(=O)C(c2ccccc2)(c2ccccc2)N1` [PHENYTOIN]: the IC50 in [2] turned out to be 21 µM; in [1] it was 40 µM. Moreover, it took a dose of 10 mg/kg to reach the 50% effect level in data set [10] (ED50). Further, the minimal effective dose in data set [3] was 200 mg/kg.
In [1], `CN(c1nc2ccccc2s1)C1CCN(C[C@H](O)COc2ccc(F)c(F)c2)CC1` [LUBELUZOLE] displayed an IC50 of 0.28 µM. Moreover, the minimal effective dose in [3] stood at 0.3 mg/kg.
Compound `Clc1ccc(-c2c[nH]nc2N2CCOCC2)cc1` came in with a median effective dose (ED50) in data set [11] of 47 mg/kg.
Compound `Cc1cccc(C)c1OCC(C)N` (stereo unspecified) [MEXILETINE] gave an ED50 in data set [4] of 2 mg/kg.
Turning to `CCC1(Cc2ccccc2)CCCNC1=O` (stereo unspecified), the half-maximal inhibitory concentration (IC50) in data set [12] was found to be 487 µM.
With `Cc1nc(OCCCCCN2CCCCC2)cc(-c2ccc(F)cc2)n1` [ENECADIN], the 50% inhibitory concentration (IC50) in data set [13] was 1 µM; in [2], 7.7 µM. Further, the minimal effective dose in data set [3] is 0.5 mg/kg.
In [4], `NC(=O)NNCc1ccc(Oc2ccc(F)cc2)cc1` returned an ED50 of 4.2 mg/kg.
`C[C@H](C(N)=O)N1CCC23CCCC[C@@H]2[C@@H]1Cc1ccc(OCc2cccc(F)c2)cc13` (single isomer, unassigned): the median effective dose (ED50) in [4] stood at 18.1 mg/kg.
`N=c1sc2ccccc2n1CCN1CCC(c2ccc(F)cc2)CC1` showed an ED50 in [4] of 3.9 mg/kg. Also, the minimal effective dose in data set [3] came to 16 mg/kg.
In the case of `CCC(C)c1ccc(N2CCCN(c3ccc(C(C)CC)cc3)C2=N)cc1` (stereo unspecified), the figures for the half-maximal inhibitory concentration (IC50) in [2] and in [14] were 0.06 µM and 0.39 µM, respectively.

Usually IC50 stands for the concentration that gives 50% inhibition. By ED50 is commonly meant the dose at which the effect has come halfway, by size or by number of responders. Broadly, the TD50 is the 50% point of the dose-response relation for the toxic effect studied. Low values mean greater toxicity, high ones lower toxicity.
